The conditions of series [1]: rcm bond; 15-membered ring; Zhan 1b; 1,2-DCE; 6.0 mM; 70.0 °C.
The target in series [2] is T1, wild-type GT1a NS3/4A protease (UniProt P27958, C1185S, species not given).
T1 construct: Ki (nM) GT1a WT NS3/4A Protease
The series is classed as biochemical, Hepatitis C virus. To be noted: read-out: Ki (nM) GT1a WT NS3/4A Protease. In a few lines: (§1)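 NS3/4A protease (2 nM; wild-type GT1a or D168A) pre-incubated 1 h at room temperature with increasing inhibitor in 50 mM Tris pH 7.5, 5% glycerol, 10 mM DTT, 0.6 mM LDAO, 4% DMSO. Ki from three independent data sets per construct; ΔG=RTlnKi.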

Series [3] deals with GT1a D168A NS3/4A protease. The series is classed as biochemical, Hepatitis C virus. To be noted: for Ki (Fold Change) D168A: Table 6, with respect to GT1a wild-type. Put shortly: as §1
Series [4] has as its target T2, wild-type GT1a NS3/4A protease (UniProt P27958).
T2 construct: Ki WT; other: wild-type HCV NS3/4A protease
It is filed as biochemical, Hepatitis C virus. In a few lines:
as §1

Series [5] addresses T3, GT1a D168A NS3/4A protease (UniProt P27958, D1194A, species not given).
T3 construct: rows headed: Ki (nM) D168A; Ki D168A; other: D168A variant
The series is classed as biochemical, Hepatitis C virus. Put shortly: as §1

Series [6] deals with T4, GT1a D168A NS3/4A protease (UniProt P27958, C1185S/D1194A, species not given).
T4 construct: Ki (nM) GT1a D168A NS3/4A Protease
It is filed as biochemical, Hepatitis C virus. To be noted: read-out: Ki (nM) GT1a D168A NS3/4A Protease. Put shortly:
as §1

Series [7] concerns the target GT1a R155K NS3/4A protease. The series is classed as biochemical, Hepatitis C virus. To be noted: fold change in Ki, R155K relative to WT. Put shortly:
(§2)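 2 nM NS3/4A protease (GT1a, R155K and D168A constructs) pre-incubated 1 h at room temperature with increasing inhibitor concentrations in 50 mM Tris pH 7.5, 5% glycerol, 10 mM DTT, 0.6 mM LDAO, 4% DMSO. Three independent data sets per inhibitor and construct; ΔG of binding derived from Ki as ΔG=RTlnKi.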

For series [8], the target named is GT1a R155K NS3/4A protease (UniProt P27958, R1181K, species not given). The series is classed as biochemical, Hepatitis C virus. In a few lines: as §2
Series [9] concerns wild-type HCV replicon in Huh7 cells. The series is described as follows: Cell-based drug susceptibility (replicon) assay, wild-type. To be noted: Hepatitis C virus, read-out: Replicon EC50 (nM) WT. In a few lines: (§3)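 Huh7, electroporated w/ Con1 (gt1b) luc replicon RNA carrying H77 (gt1a) NS3; mutants by site-directed mutagenesis. Increasing PI concentrations; luciferase (RLU) read 96 h post-electroporation.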

Series [10] deals with T5, GT3a NS3/4A protease (Hepatitis C virus genotype 3a, UniProt Q81495).
T5 construct: drug-resistant variant D168A, and GT3a NS3/4A protease; made in house; host or cells: Escherichia coli BL21(DE3)
T5 sequence (Q81495 1033-1214): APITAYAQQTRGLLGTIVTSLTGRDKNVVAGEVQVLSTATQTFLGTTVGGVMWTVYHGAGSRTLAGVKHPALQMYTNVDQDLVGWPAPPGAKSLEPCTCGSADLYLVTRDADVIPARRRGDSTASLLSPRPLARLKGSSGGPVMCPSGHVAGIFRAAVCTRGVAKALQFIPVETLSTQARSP
The series is described as follows: biochemical. In a few lines: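 Protease at 2 nM pre-incubated 1 h at room temperature with increasing inhibitor concentrations in 50 mM Tris, 5% glycerol, 10 mM DTT, 0.6 mM LDAO, 4% DMSO. Three independent data sets per inhibitor and construct.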

In series [11] the test system is HCV replicon D168V variant in Huh7 cells. The series is described as follows: microbe, parasite or virus in culture. It is filed as cell-based, Hepatitis C virus. To be noted: for EC50: Hepatitis C virus. Put shortly: as §3
The test system of series [12] is HCV replicon D168A variant in Huh7 cells. The series is described as follows: microbe, parasite or virus in culture. It is filed as cell-based, Hepatitis C virus. To be noted: for EC50: Hepatitis C virus. In a few lines: as §3
The test system of series [13] is HCV replicon A156T variant in Huh7 cells. The series can be described thus: microbe, parasite or virus in culture. The series is classed as cell-based, Hepatitis C virus. To be noted: for EC50: Hepatitis C virus. Put shortly: as §3
For series [14], the system named is HCV replicon R155K variant in Huh7 cells. The series can be described thus: microbe, parasite or virus in culture. The series is classed as cell-based, Hepatitis C virus. To be noted: for EC50: Hepatitis C virus. In a few lines: as §3
The target in series [15] is T6, wild-type GT1a NS3/4A protease (UniProt P27958, C1185S, species not given).
T6 construct: P4/P4-P5 modified macrocycles
It is filed as biochemical, Hepatitis C virus. To be noted: read-out: Ki (nM) GT1a WT; Table 6; P4/P4-P5 modified macrocycles. Put shortly: as §1

For series [16], the target named is T7, GT1a D168A NS3/4A protease (UniProt P27958, C1185S/D1194A, species not given).
T7 construct: P4/P4-P5 modified macrocycles
It is filed as biochemical, Hepatitis C virus. To be noted: read-out: Ki (nM) D168A; Table 6; P4/P4-P5 modified macrocycles. In a few lines:
as §1

Where [17] appears, read: Table 4, relative to WT replicon.

Like-named read-outs stand apart in the source and are kept apart here.

From US11472778B2, “Hepatitis C virus NS3/4A protease inhibitors” (priority 2017, dated 2022) come the findings set out here.

One may read the EC50 as the concentration needed to bring the measured effect to its halfway point.

As for `CCc1nc2ccc(OC)cc2nc1O[C@@H]1C[C@H]2C(=O)N[C@]3(C(=O)NS(=O)(=O)C4CC4)C[C@H]3/C=C\CCCCC[C@H](NC(=O)OC(C)(C)C)C(=O)N2C1` [Compound 2, tert-Butyl ((2R,6S,13aS,14aR,16aS,Z)-14a-((cyclopropylsulfonyl)carbamoyl)-2-((3-ethyl-7-methoxyquinoxalin-2-yl)oxy)-5,16-dioxo-1,2,3,5,6,7,8,9,10,11,13a,14,14a,15,16,16a-hexadecahydrocyclopropa[e]pyrrolo[1,2-a][1,4]diazacyclopentadecin-6-yl)carbamate], the ring closure, isolated yield in series [1] worked out at 53%. Moreover, the Ki in series [2] (Table 1) came to 3.29 nM; in [2] (Table 3), 3.29 nM; in [4] (read-out: Ki (nM) WT, Table 8, linear inhibitors), 2 nM; in series [4] (read-out: Ki WT, wild-type HCV NS3/4A protease), 2 ± 0.1 nM; in [5] (read-out: Ki (nM) D168A, Table 8, linear inhibitors), 91 ± 10 nM; in series [5] (read-out: Ki D168A, D168A variant) it was 91 ± 10 nM. The Ki was 82.4 nM in series [6] (Table 1); 82.4 ± 4.4 nM in series [6] (Table 3); 3.1 ± 0.34 nM in series [8] (read-out: Ki (nM) R155K, Table 8, linear inhibitors); 3.1 ± 0.34 nM in series [8] (read-out: Ki R155K, R155K variant); 204 nM in series [10]. In addition, in [3] (Table 3, Ki D168A relative to GT1a WT), the “Ki (Fold change) GT1a D168A NS3/4A Protease” value is “(25) fold”. Also, the “Ki D168A (fold change)” value in [3] (fold change in Ki, D168A relative to WT) was 46. Also, in series [7], the “Ki R155K (fold change)” value is given as 1.6. Moreover, the EC50 in series [9] (Huh-7, 96 h, Table 2, Huh7 cells, luciferase 96 h) was 0.33 nM; in [9] (Huh-7, Table 4), 0.33 nM; in series [9] (Huh-7, Table 9) it was 0.33 nM; in series [11] (Huh-7, 96 h, read-out: Replicon EC50 (nM) D168V, Table 2, Huh7 cells, luciferase 96 h), 9.1 nM; in series [11] (Huh-7, read-out: Replicon EC50 (nM) D168V, Table 4), 9.1 nM; in series [11] (Huh-7, read-out: Replicon EC50 (nM) D168V, Table 9), 9.1 nM. Further, the EC50 was 6.31 nM in series [12] (Huh-7, 96 h, read-out: Replicon EC50 (nM) D168A, Table 2, Huh7 cells, luciferase 96 h); 6.31 nM in [12] (Huh-7, read-out: Replicon EC50 (nM) D168A, Table 4); 6.3 nM in [12] (Huh-7, read-out: Replicon EC50 (nM) D168A, Table 9); 9.65 nM in [13] (Huh-7, 96 h, read-out: Replicon EC50 (nM) A156T, Table 2, Huh7 cells, luciferase 96 h); 9.65 nM in [13] (Huh-7, read-out: Replicon EC50 (nM) A156T, Table 4); 9.7 nM in series [13] (Huh-7, read-out: Replicon EC50 (nM) A156T, Table 9). The EC50 in [14] (Huh-7, 96 h, read-out: Replicon EC50 (nM) R155K, Table 2, Huh7 cells, luciferase 96 h) came to 1.75 nM; in series [14] (Huh-7, read-out: Replicon EC50 (nM) R155K, Table 4), 1.75 nM; in series [14] (Huh-7, read-out: Replicon EC50 (nM) R155K, Table 9), 1.8 nM. For the same compound, in series [10] (Table 3, Ki GT3a relative to GT1a WT), the “Ki (Fold change) GT3a NS3/4A Protease” value is on record as “(62) fold”. The “Replicon EC50 (Fold change) D168V” value in series [11] (setting [17]) was “(28) fold”; in [11] (Table 9, relative to WT), “(28) fold”. For the same compound, the “Replicon EC50 (Fold change) D168A” value was “(19) fold” in series [12] (setting [17]) and “(19) fold” in [12] (Table 9, relative to WT). The “Replicon EC50 (Fold change) A156T” value in [13] (setting [17]) is on record as “(29) fold”; in series [13] (Table 9, relative to WT) it was “(29) fold”. For the same compound, the “Replicon EC50 (Fold change) R155K” value is recorded as “(5) fold” in [14] (setting [17]) and “(5.5) fold” in [14] (Table 9, relative to WT).

For `COc1ccc2nc(C)c(O[C@@H]3C[C@H]4C(=O)N[C@]5(C(=O)NS(=O)(=O)C6(C)CC6)C[C@H]5/C=C\CCCCC[C@H](NC(=O)OC5(C)CCCC5)C(=O)N4C3)nc2c1` [Compound P4-3, 1-methylcyclopentyl ((2R,6S,13aS,14aR,16aS,Z)-2-((7-methoxy-3-methylquinoxalin-2-yl)oxy)-14a-(((1-methylcyclopropyl)sulfonyl)carbamoyl)-5,16-dioxo-1,2,3,5,6,7,8,9,10,11,13a,14,14a,15,16,16a-hexadecahydrocyclopropa[e]pyrrolo[1,2-a][1,4]diazacyclopentadecin-6-yl)carbamate], the “Ki (Fold Change) D168A” value in series [3] is reported as “(9) fold”. Also, the Ki in series [15] amounted to 1.78 ± 0.3 nM; in series [16], 16 nM.

In the case of `COC(=O)N[C@H](C(=O)N[C@H]1CCCCC/C=C\[C@@H]2C[C@@]2(C(=O)NS(=O)(=O)C2(C)CC2)NC(=O)[C@@H]2C[C@@H](Oc3nc4cc(OC)ccc4nc3C)CN2C1=O)C(C)(C)C` [Compound P4-P5-1, Methyl ((S)-1-(((2R,6S,13aS,14aR,16aS,Z)-2-((7-methoxy-3-methylquinoxalin-2-yl)oxy)-14a-(((1-methylcyclopropyl)sulfonyl)carbamoyl)-5,16-dioxo-1,2,3,5,6,7,8,9,10,11,13a,14,14a,15,16,16a-hexadecahydrocyclopropa[e]pyrrolo[1,2-a][1,4]diazacyclopentadecin-6-yl)amino)-3,3-dimethyl-1-oxobutan-2-yl)carbamate], in series [3], the “Ki (Fold Change) D168A” value is listed as “(8) fold”. The Ki is 29.5 nM in [15] and 201 ± 15 nM in series [16].

Turning to `COc1ccc2nc(C)c(O[C@@H]3C[C@H]4C(=O)N[C@]5(C(=O)NS(=O)(=O)C6(C)CC6)C[C@H]5/C=C\CCCCC[C@H](NC(=O)[C@@H](NC(C)=O)C(C)(C)C)C(=O)N4C3)nc2c1` [Compound P4-P5-2], the “Ki (Fold Change) D168A” value in series [3] is “(9) fold”. Also, the Ki amounted to 23.9 ± 1.7 nM in series [15] and 215 ± 16 nM in series [16].

`COC(=O)N[C@H](C(=O)N[C@H]1CCCCC/C=C\[C@@H]2C[C@@]2(C(=O)NS(=O)(=O)C2(C)CC2)NC(=O)[C@@H]2C[C@@H](Oc3nc4cc(OC)ccc4nc3C)CN2C1=O)C(C)C` [Compound P4-P5-3, Methyl ((S)-1-(((2R,6S,13aS,14aR,16aS,Z)-2-((7-methoxy-3-methylquinoxalin-2-yl)oxy)-14a-(((1-methylcyclopropyl)sulfonyl)carbamoyl)-5,16-dioxo-1,2,3,5,6,7,8,9,10,11,13a,14,14a,15,16,16a-hexadecahydrocyclopropa[e]pyrrolo[1,2-a][1,4]diazacyclopentadecin-6-yl)amino)-3-methyl-1-oxobutan-2-yl)carbamate]: the “Ki (Fold Change) D168A” value in series [3] is “(8) fold”. Besides, the Ki in [15] came to 13 ± 0.8 nM; in [16], 102 ± 6.8 nM.

As for `COc1ccc2nc(C)c(O[C@@H]3C[C@H]4C(=O)N[C@]5(C(=O)NS(=O)(=O)C6(C)CC6)C[C@H]5/C=C\CCCCC[C@H](NC(=O)[C@@H](NC(C)=O)C(C)C)C(=O)N4C3)nc2c1` [Compound P4-P5-4], the “Ki (Fold Change) D168A” value in series [3] is on record as “(13) fold”. The Ki was found to be 11.1 ± 0.5 nM in series [15] and 141 ± 18 nM in series [16].
